Reference: ChEMBL document CHEMBL1152676, “Combretastatin-like chalcones as inhibitors of microtubule polymerization. Part 1: synthesis and biological evaluation of antivascular activity” (Bioorg Med Chem, 2009)
pIC50: −log10 of the molar value.

What was measured:
K562 [1] = assay: Antiproliferative activity against human K562 cells after 5 days by MTT assay; assay type: functional, cell-based
K562 [2] = assay: Cell cycle arrest in human K562 cells assessed as accumulation at G2/M phase at 20 nM after 24 hrs by propidium iodide staining-based flow cytometry; assay type: functional
K562 [3] = assay: Cell cycle arrest in human K562 cells assessed as accumulation at G0/G1 phase at 20 nM after 24 hrs by propidium iodide staining-based flow cytometry; assay type: functional
K562 [4] = assay: Cell cycle arrest in human K562 cells assessed as accumulation at S phase at 20 nM after 24 hrs by propidium iodide staining-based flow cytometry; assay type: functional
[5] = Inhibition of tubulin assembly by Woods method

Row | Structure (SMILES) | pIC50 (K562 [1]; Homo sapiens, K562, 120 h) | other results
1 | COc1ccc(OC)c(C(=O)/C=C/c2ccc(N(C)C)cc2)c1 | 7.40 | 
2 | COc1cc(C(=O)/C=C/c2cc(F)c(OC)c(F)c2)cc(OC)c1OC | 5.21 | Activity (K562 [2]): 61%; Activity (K562 [3]): 20%; Activity (K562 [4]): 19%; pIC50 [5]: 4.92
3 | COc1cc(/C=C/C(=O)c2cc(OC)c(OC)c(OC)c2)cc(OC)c1OC | 5.82 | 
4 | CCO/C(=C\c1ccc(OC)c(O)c1)C(=O)c1cc(OC)c(OC)c(OC)c1 | 8.59 | 
5 | COc1ccc(/C=C/C(O)c2cc(OC)c(OC)c(OC)c2)cc1O (stereo unspecified) | 6.30 | 
6 | COc1ccc(C(=O)/C=C/c2cc(OC)c(OC)c(OC)c2)c(O)c1 | 5.36 | 
7 | COc1cc(/C=C/C(=O)c2ccccc2)cc(OC)c1OC | 5.80 | 
8 | COc1cc(/C=C/C(=O)c2ccc3c(c2)OCO3)cc(OC)c1OC | 5.54 | 
9 | O=C(/C=C/c1ccc2c(c1)OCO2)c1ccc2c(c1)OCCO2 | 5.10 | 
10 | COc1ccc(/C=C/C(=O)c2ccc(OC)cc2)cc1 [4,4'-DIMETHOXYCHALCONE] | 4.82 | 
11 | COc1ccc(/C=C/C(=O)c2ccc(C)cc2)cc1 | 4.70 | 
12 | CCCO/C(=C\c1cc(F)c(OC)c(F)c1)C(=O)c1cc(OC)c(OC)c(OC)c1 | 6.66 | 
13 | COc1cc(C(=O)[C@H]2O[C@@H]2c2cc(OC)c(OC)c(OC)c2)cc(OC)c1OC (relative stereo) | 5.43 | 
14 | COc1cc(C(=O)/C=C/c2ccc(OCc3ccccc3)cc2)cc(OC)c1OC | 5.00 | 
15 | CCCO/C(=C\c1ccc(OC)c(F)c1)C(=O)c1cc(OC)c(OC)c(OC)c1 | 7.70 | 
16 | COc1ccc(/C=C/C(=O)c2ccc3c(c2)OCO3)cc1OC | 5.15 | 
17 | COc1ccc(CCC(=O)c2cc(OC)c(OC)c(OC)c2)cc1O | 6.00 | 
18 | COc1ccc(/C=C/C(O)c2cc(OC)c(OC)c(OC)c2)cc1 (stereo unspecified) | 5.40 | 
19 | COc1ccc(C(=O)/C=C/c2cc(OC)c(OC)c(OC)c2)cc1OC | 5.96 | 
20 | COc1ccc(/C=C/C(=O)c2ccc(OC)cc2OC)cc1 [METOCHALCONE] | 5.57 | 
21 | COc1ccc([C@H]2O[C@@H]2C(=O)c2cc(OC)c(OC)c(OC)c2)cc1 (racemic) | 5.31 | 
22 | COc1cc(C(=O)/C=C/c2ccc(F)cc2)cc(OC)c1OC | 5.82 | 
23 | COc1ccc(C(=O)/C=C/c2ccc(O)c(O)c2)c(OC)c1OC | 5.77 | 
24 | COc1ccc(C(=O)CCc2cc(OC)c(OC)c(OC)c2)cc1 | 4.92 | 
25 | COc1ccc(OC)c(C(=O)/C=C/c2ccc3c(c2)OCCO3)c1 | 6.52 | 
26 | COc1ccc(/C=C/C(=O)c2ccc(OC)c(OC)c2OC)cc1 | 6.52 | 

Row | Structure (SMILES) | pIC50 (K562 [1]; Homo sapiens, K562, 120 h) | other results
27 | COc1ccc(C(=O)[C@H]2O[C@@H]2c2ccc(OC)c(OC)c2)cc1 (racemic) | < 4.52 | 
28 | COc1ccc(/C=C/C(=O)c2cc(OC)c(OC)c(OC)c2)cc1F | 6.52 | Activity (K562 [2]): 72%; Activity (K562 [3]): 9%; Activity (K562 [4]): 19%; pIC50 [5]: 5.92
29 | COc1ccc(/C=C/C(=O)c2cc(OC)c(OC)c(OC)c2)cc1 | 6.52 | 
30 | COc1ccc(/C=C/C(=O)c2ccc(C)cc2)cc1O | 5.82 | 
31 | COc1cc(/C=C/C(=O)c2ccc3c(c2)OCCO3)cc(OC)c1OC | 5.25 | 
32 | COc1cc(OC)c(C=C(C)C(=O)c2cc(OC)c(OC)c(OC)c2)c(OC)c1 | < 4.60 | 
33 | COc1ccc(/C=C(\C)C(O)c2cc(OC)c(OC)c(OC)c2)cc1O (stereo unspecified) | 7.05 | Activity (K562 [2]): 24%; Activity (K562 [3]): 44%; Activity (K562 [4]): 33%; pIC50 [5]: < 5.00
34 | COc1ccc(CCC(O)c2cc(OC)c(OC)c(OC)c2)cc1O (stereo unspecified) | 6.00 | 
35 | COc1ccc(OC)c(/C=C/C(=O)c2c(OC)cc(OC)cc2OC)c1 | 5.14 | 
36 | COc1cc(/C=C/C(=O)c2ccc(F)cc2)cc(OC)c1OC | 5.80 | 
37 | COc1ccc(C(=O)/C=C/c2ccc(OC)c(OP(=O)([O-])[O-])c2)cc1.[Na+].[Na+] |  | Activity (K562 [2]): 64%; Activity (K562 [3]): 22%; pIC50 (K562 [1]; k562): 8.10; Activity (K562 [4]): 14%; pIC50 [5]: 4.41
38 | COc1ccc(/C=C/C(=O)c2ccc(OC)c(OC)c2OC)cc1F | 6.46 | Activity (K562 [2]): 49%; Activity (K562 [3]): 37%; Activity (K562 [4]): 14%; pIC50 [5]: 5.10
39 | COc1cc(C(=O)/C=C/c2ccc(Cl)cc2Cl)cc(OC)c1OC | 5.42 | 
40 | O=C(/C=C/c1ccc(F)cc1)c1ccc(F)cc1 | 5.31 | 
41 | CCO/C(=C\c1ccc(OC)c(F)c1)C(=O)c1cc(OC)c(OC)c(OC)c1 | 7.96 | 
42 | COc1ccc(C(=O)/C(C)=C/c2cc(OC)ccc2OC)cc1 | 5.64 | 
43 | COc1cc(/C=C(\C)C(=O)c2cc(OC)c(OC)c(OC)c2)cc(OC)c1OC | 5.60 | 
44 | COc1ccc(/C=C/C(=O)c2cc(OC)c(OC)c(OC)c2)cc1N | 8.00 | Activity (K562 [2]): 19%; Activity (K562 [3]): 48%; Activity (K562 [4]): 33%; pIC50 [5]: 5.70
45 | COc1ccc(C(=O)/C=C/c2cc(OC)ccc2OC)c(Cl)c1 | 5.40 | 
46 | COc1ccc(C(=O)/C(C)=C/c2ccc(OC)c(OP(=O)(O)O)c2)cc1 |  | pIC50 (K562 [1]; k562): 6.30
47 | COc1ccc(/C=C/C(=O)c2ccc(OC)c(OC)c2)cc1OC | 5.66 | 
48 | COc1cc(C(=O)/C=C/c2cc(OC)c(OC)c(OC)c2)ccc1O | 5.46 | 
49 | COc1ccc(CC(C)C(=O)c2cc(OC)c(OC)c(OC)c2)cc1O (stereo unspecified) | 7.52 | Activity (K562 [2]): 28%; Activity (K562 [3]): 36%; Activity (K562 [4]): 36%; pIC50 [5]: 5.40
50 | COc1ccc(C(=O)/C=C/c2cc(F)c(OC)c(F)c2)c(OC)c1OC | 5.32 | Activity (K562 [2]): 46%; Activity (K562 [3]): 51%; Activity (K562 [4]): 3%; pIC50 [5]: 4.51
51 | Cc1ccc(/C=C/C(=O)c2ccc(C)cc2)cc1 [4,4'-DIMETHYLCHALCONE] | 4.96 | 
52 | COc1ccc(C(=O)/C=C/c2ccc(OC)c(OP(=O)(O)O)c2)cc1 |  | pIC50 (K562 [1]; k562): 6.52

Row | Structure (SMILES) | pIC50 (K562 [1]; Homo sapiens, K562, 120 h) | other results
53 | CCC/C(=C\c1ccc(OC)c(O)c1)C(=O)c1cc(OC)c(OC)c(OC)c1 | 8.66 | 
54 | COc1ccc(/C=C/C(=O)c2ccc(O)cc2)cc1 | 5.00 | 
55 | COc1ccc(OC)c(/C=C/C(=O)c2ccc3c(c2)OCO3)c1 | 5.19 | 
56 | COc1ccc(C(=O)/C(C)=C/c2ccc(OC)c(OP(=O)([O-])[O-])c2)cc1.[Na+].[Na+] |  | Activity (K562 [2]): 69%; Activity (K562 [3]): 21%; pIC50 (K562 [1]; k562): 9.92; Activity (K562 [4]): 10%; pIC50 [5]: 5.51
57 | COc1ccc(C(=O)/C=C/c2ccc(OC)c(OC)c2)c(O)c1 | 4.80 | 
58 | COc1ccc(CCC(=O)c2cc(OC)c(OC)c(OC)c2)cc1 | 5.00 | 
59 | COc1ccc(/C=C/C(=O)c2cc(OC)c(OC)c(OC)c2)cc1[N+](=O)[O-] | 5.40 | 
60 | COc1ccc(/C=C/C(=O)c2ccc(OC)c(OC)c2)cc1 | 5.00 | 
61 | COc1ccc(/C=C(\C)C(=O)c2cc(OC)c(OC)c(OC)c2)cc1[N+](=O)[O-] | 7.22 | Activity (K562 [2]): 28%; Activity (K562 [3]): 36%; Activity (K562 [4]): 36%; pIC50 [5]: < 5.00
62 | O=C(/C=C/c1ccccc1)c1ccccc1 [CHALCONE] | 5.42 | 
63 | COc1ccc(C(=O)/C=C/c2ccc(Cl)cc2)c(O)c1 | 5.01 | 
64 | COc1cc(C(=O)/C=C/c2ccc(Cl)cc2)cc(OC)c1OC | 5.82 | 
65 | COc1cc(C(=O)/C=C/c2ccc(O)c(O)c2)cc(OC)c1OC | 5.92 | 
66 | CCO/C(=C\c1cc(F)c(OC)c(F)c1)C(=O)c1cc(OC)c(OC)c(OC)c1 | 6.64 | 
67 | Cc1ccc(C(=O)[C@H]2O[C@@H]2c2ccc(C)cc2)cc1 (racemic) | 4.92 | 
68 | COc1ccc([C@H]2O[C@@H]2C(=O)c2ccc(C)cc2)cc1 (racemic) | 4.82 | 
69 | COc1cc(C(=O)[C@H]2O[C@@H]2c2ccc(C)cc2)cc(OC)c1OC (racemic) | 5.47 | 
70 | COc1ccc(/C=C(\C)C(=O)c2ccc(OC)cc2)cc1 | 5.72 | 
71 | COc1ccc(CCC(O)c2cc(OC)c(OC)c(OC)c2)cc1 (stereo unspecified) | 5.40 | 
72 | COc1ccc(CCCc2cc(OC)c(OC)c(OC)c2)cc1 | 6.30 | 
73 | COc1ccc(C(=O)[C@H]2O[C@@H]2c2ccc(C)cc2)cc1 (relative stereo) | < 4.52 | 
74 | O=C(/C=C/c1ccc2c(c1)OCO2)c1ccc(F)cc1 | 5.29 | 
75 | COc1ccc(C(=O)[C@H]2O[C@@H]2c2ccc(OC)cc2)cc1 (racemic) | < 4.52 | 
76 | COc1ccc(CC(C)C(O)c2cc(OC)c(OC)c(OC)c2)cc1O (stereo unspecified) | 6.22 | 
